The results in this text go back to patent EP4644383A1 (Jiangsu Yahong Meditech Co., Ltd., priority 2022, dated 2024).

Where two headings read alike, the source gives them in different places.

One may read the IC50 as the midpoint of a concentration-inhibition curve.

The target in one assay is T1, FGFR1 (Homo sapiens, UniProt P11362).
T1 construct: cytoplasmic domain [398-822 (terminal) amino acids]; purchased Carna 08-133
The assay can be described thus: FGFR1 kinase activity inhibition assay (LanthaScreen TR-FRET). The format is biochemical. As for the experimental part:
(§1) PV3552) and 10 mM EDTA were added to quench the kinase reaction, and incubated at 22°C for 60 minutes. • ⑤ The reaction was measured using a PerkinElmer EnVision multimode plate reader through TR-FRET dual wavelength detection. • 1. The RFU values were copied from the Envision program. • 2. The ratio of RFU 520nm/RFU 495nm was calculated. • 3. The value of the ratio was converted to a percentage inhibition value. % Inhibition = (max-data)/(max-min) × 100 [formula] "Min" represents the ratio of the control without enzyme, "max" represents the ratio of the DMSO control, and "data" represents the ratio of the compounds in wells with different concentrations. […] "Top" refers to the maximum response, "Bottom" refers to the minimum response, and "HillSlope" refers to the slope of the curve.
On the technique in general: Time-resolved FRET reads energy transfer from a long-lived donor to a nearby acceptor.

The target of a further assay is T2, FGFR3 (Homo sapiens, UniProt P22607).
T2 construct: FGFR3's cytoplasmic domain [436-806 (terminal) amino acids]; purchased Carna 08-135
T2 sequence (P22607 436-806): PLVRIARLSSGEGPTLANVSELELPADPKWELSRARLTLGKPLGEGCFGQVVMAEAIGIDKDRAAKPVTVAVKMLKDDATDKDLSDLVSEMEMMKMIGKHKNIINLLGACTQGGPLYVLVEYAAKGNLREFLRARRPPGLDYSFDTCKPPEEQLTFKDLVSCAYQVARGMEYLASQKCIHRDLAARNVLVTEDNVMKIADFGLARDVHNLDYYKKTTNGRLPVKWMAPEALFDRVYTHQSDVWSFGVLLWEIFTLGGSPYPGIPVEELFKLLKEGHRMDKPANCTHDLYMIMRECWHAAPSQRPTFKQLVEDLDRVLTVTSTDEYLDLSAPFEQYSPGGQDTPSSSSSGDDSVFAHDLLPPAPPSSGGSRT
The assay can be described thus: FGFR3 kinase activity inhibition assay (LanthaScreen TR-FRET). It counts as biochemical. The settings on record: for Selectivity (X) FGFR1/FGFR3: ratio of IC50 FGFR1/FGFR3, selectivity towards FGFR3. As for the experimental part:
as §1, with “curve. According to the same method as that in the FGFR1 kinase activity inhibition assay, the inhibitory activities against FGFR2, FGFR3 and FGFR4 were tested using FGFR2's cytoplasmic domain [399-821 (terminal) amino acids] (Carna: 08-134), FGFR3's cytoplasmic domain [436-806 (terminal) amino acids] (Carna: 08-135) and FGFR4's cytoplasmic domain [460-802 (terminal) amino acids] (Carna: 08-136), respectively. […]” for “curve.”

The mark [1] stands for this setting: FGFR1 kinase, TR-FRET, read-out: IC50 (nM) FGFR1.
Where [2] appears, read: FGFR3 kinase, TR-FRET, read-out: IC50 (nM) FGFR3.

T1 sequence (P11362 398-822): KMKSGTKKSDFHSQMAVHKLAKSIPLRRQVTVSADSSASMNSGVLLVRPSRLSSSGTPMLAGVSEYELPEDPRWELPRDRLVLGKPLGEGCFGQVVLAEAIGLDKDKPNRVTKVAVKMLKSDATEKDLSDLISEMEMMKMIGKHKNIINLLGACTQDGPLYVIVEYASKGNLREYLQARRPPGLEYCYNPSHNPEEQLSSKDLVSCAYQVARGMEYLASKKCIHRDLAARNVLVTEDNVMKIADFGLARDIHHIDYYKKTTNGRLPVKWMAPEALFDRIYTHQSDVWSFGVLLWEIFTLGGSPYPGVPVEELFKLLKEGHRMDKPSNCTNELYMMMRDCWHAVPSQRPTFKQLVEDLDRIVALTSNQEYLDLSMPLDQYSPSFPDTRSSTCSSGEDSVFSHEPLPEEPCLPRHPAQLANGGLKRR

As for `C[C@@H](Oc1cc(F)c2[nH]nc(-c3cnn(CC(N)=O)c3)c2c1)c1c(Cl)cncc1Cl` [Example 16, (R)-2-(4-(5-(1-(3,5-dichloropyridin-4-yl)ethoxy)-7-fluoro-1H-indazol-3-yl)-1H-pyrazol-1-yl)acetamide], the IC50 was in the range of 10 to 100 nM on FGFR1 (setting [1]) and 1 to 10 nM on FGFR3 (setting [2]). Also, on FGFR3, the “Selectivity (X) FGFR1/FGFR3” value is given as “A (A represents 1 ≤ multiple X<20)”.

With `C[C@@H](Oc1cc(F)c2[nH]nc(-c3cnn(CCC4CCOCC4)c3)c2c1)c1c(Cl)cncc1Cl` [Example 18, (R)-5-(1-(3,5-dichloropyridin-4-yl)ethoxy)-7-fluoro-3-(1-(2-(tetrahydro-2H-pyran-4-yl)ethyl)-1H-pyrazol-4-yl)-1H-indazole], the IC50 on FGFR1 lay in the range of 1 to 10 nM. For the same compound, at FGFR3, the IC50 is 1 to 10 nM and the “Selectivity (X) FGFR1/FGFR3” value is given as “A (A represents 1 ≤ multiple X<20)”.

Regarding `C[C@@H](Oc1cc(F)c2[nH]nc(-c3cnn(CC(=O)N4CCOCC4)c3)c2c1)c1c(Cl)cncc1Cl` [Example 19, (R)-2-(4-(5-(1-(3,5-dichloropyridin-4-yl)ethoxy)-7-fluoro-1H-indazol-3-yl)-1H-pyrazol-1-yl)-1-morpholinoetha n-1-one], the IC50 at FGFR1 (setting [1]) and at FGFR3 (setting [2]) was 10 to 100 nM throughout. For the same compound, the “Selectivity (X) FGFR1/FGFR3” value at FGFR3 was “A (A represents 1 ≤ multiple X<20)”.

In the case of `COCCN(C)CCn1cc(-c2n[nH]c3c(F)cc(O[C@H](C)c4c(Cl)cncc4Cl)cc23)cn1` [Example 20, (R)-2-(4-(5-(1-(3,5-dichloropyridin-4-yl)ethoxy)-7-fluoro-1H-indazol-3-yl)-1H-pyrazol-1-yl)-N-(2-methoxyethyl)-N-methylethan-1-amine], the IC50 is 1 to 10 nM at FGFR1 (setting [1]) and less than 1 nM at FGFR3 (setting [2]). The “Selectivity (X) FGFR1/FGFR3” value at FGFR3 is recorded as “A (A represents 1 ≤ multiple X<20)”.

On to `COCCOCCn1cc(-c2n[nH]c3c(F)cc(O[C@H](C)c4c(Cl)cncc4Cl)cc23)cn1` [Example 21], for which the IC50 against FGFR1 is greater than 100 nM; against FGFR3, 10 to 100 nM. Further, the “Selectivity (X) FGFR1/FGFR3” value on FGFR3 was “A (A represents 1 ≤ multiple X<20)”.

Take `C[C@@H](Oc1cc(F)c2[nH]nc(-c3cnn(CCN4CCN(C)CC4)c3)c2c1)c1c(Cl)cncc1Cl` [Example 22, (R)-5-(1-(3,5-dichloropyridin-4-yl)ethoxy)-7-fluoro-3-(1-(2-(4-methylpiperazin-1-yl)ethyl)-1H-pyrazol-4-yl)-1H-indazole]: the figures for the IC50 on FGFR1 (setting [1]) and at FGFR3 (setting [2]) were 10 to 100 nM and 1 to 10 nM, respectively. For the same compound, the “Selectivity (X) FGFR1/FGFR3” value at FGFR3 is recorded as “A (A represents 1 ≤ multiple X<20)”.

For the compound `COc1cc(O[C@H](C)c2c(Cl)cncc2Cl)cc2c(-c3cnn(CCN4CCOCC4)c3)n[nH]c12` [Example 25, (R)-4-(2-(4-(5-(1-(3,5-dichloropyridin-4-yl)ethoxy)-7-methoxy-1H-indazol-3-yl)-1H-pyrazol-1-yl)ethyl)morpholine], the IC50 against FGFR1 and against FGFR3 was greater than 100 nM each time. In addition, the “Selectivity (X) FGFR1/FGFR3” value on FGFR3 is “B (B represents 20 ≤ multiple X<50)”.

The compound `Cc1cc(O[C@H](C)c2c(Cl)cncc2Cl)cc2c(-c3cnn(CC4CC4)c3)n[nH]c12` [Example 26, (R)-3-(1-(cyclopropylmethyl)-1H-pyrazol-4-yl)-5-(1-(3,5-dichloropyridin-4-yl)ethoxy)-7-methyl-1H-indazole] had an IC50 against FGFR1 greater than 100 nM. In addition, on FGFR3, the IC50 fell in the range of 10 to 100 nM and the “Selectivity (X) FGFR1/FGFR3” value is “B (B represents 20 ≤ multiple X<50)”.

`Cc1c(-c2n[nH]c3ccc(O[C@H](C)c4c(Cl)cncc4Cl)nc23)cnn1C` [Example 30, (R)-5-(1-(3,5-dichloropyridin-4-yl)ethoxy)-3-(1,5-dimethyl-1H-pyrazol-4-yl)-1H-pyrazolo[4,3-b]pyridine]: the IC50 on FGFR1 and against FGFR3 was 10 to 100 nM each time. Besides, the “Selectivity (X) FGFR1/FGFR3” value at FGFR3 is reported as “A (A represents 1 ≤ multiple X<20)”.

For the compound `C[C@@H](Oc1ccc2[nH]nc(-c3cnn(CCCN4CCOCC4)c3)c2n1)c1c(Cl)cncc1Cl` [Example 32, (R)-4-(3-(4-(5-(1-(3,5-dichloropyridin-4-yl)ethoxy)-1H-pyrazolo[4,3-b]pyridin-3-yl)-1H-pyrazol-1-yl)propyl)morpholine], the IC50 on FGFR1 (setting [1]) was 1 to 10 nM; at FGFR3 (setting [2]), less than 1 nM. Further, on FGFR3, the “Selectivity (X) FGFR1/FGFR3” value is “A (A represents 1 ≤ multiple X<20)”.

Take `C[C@@H](Oc1ccc2[nH]nc(-c3cnn(C4CCOCC4)c3)c2n1)c1c(Cl)cncc1Cl` [Example 34, (R)-5-(1-(3,5-dichloropyridin-4-yl)ethoxy)-3-(1-(tetrahydro-2H-pyran-4-yl)-1H-pyrazol-4-yl)1H-pyrazolo[4,3-b]pyridine]: the IC50 at FGFR1 (setting [1]) and at FGFR3 (setting [2]) was 1 to 10 nM each time. Besides, on FGFR3, the “Selectivity (X) FGFR1/FGFR3” value is given as “A (A represents 1 ≤ multiple X<20)”.

On to `CC(=O)N1CCC(n2cc(-c3n[nH]c4ccc(O[C@H](C)c5c(Cl)cncc5Cl)nc34)cn2)CC1` [Example 35], for which the results for the IC50 on FGFR1 and against FGFR3 were 1 to 10 nM and less than 1 nM, respectively. Moreover, the “Selectivity (X) FGFR1/FGFR3” value on FGFR3 is given as “A (A represents 1 ≤ multiple X<20)”.

As to `COCCn1cc(-c2n[nH]c3ccc(O[C@H](C)c4c(Cl)cncc4Cl)nc23)cn1` [Example 40, (R)-5-(1-(3,5-dichloropyridin-4-yl)ethoxy)-3-(1-(2-methoxyethyl)-1H-pyrazol-4-yl)-1H-pyrazolo[4,3-b]pyridine], the IC50 on FGFR1 was in the range of 10 to 100 nM; against FGFR3, 1 to 10 nM. Further, on FGFR3, the “Selectivity (X) FGFR1/FGFR3” value is reported as “A (A represents 1 ≤ multiple X<20)”.

For `C[C@@H](Oc1ccc2[nH]nc(-c3cnn(CCS(C)(=O)=O)c3)c2n1)c1c(Cl)cncc1Cl` [Example 42, (R)-5-(1-(3,5-dichloropyridin-4-yl)ethoxy)-3-(1-(2-(methylsulfonyl)ethyl)-1H-pyrazol-4-yl)-1H-pyrazolo[4,3-b]pyridine], the figures for the IC50 on FGFR1 (setting [1]) and at FGFR3 (setting [2]) were 10 to 100 nM and 1 to 10 nM, respectively. Besides, on FGFR3, the “Selectivity (X) FGFR1/FGFR3” value is listed as “B (B represents 20 ≤ multiple X<50)”.

As to `C[C@@H](Oc1ccc2[nH]nc(-c3cnn4c3CCC4)c2n1)c1c(Cl)cncc1Cl` [Example 45, (R)-5-(1-(3,5-dichloropyridin-4-yl)ethoxy)-3-(5,6-dihydro-4H-pyrrolo[1,2-b]pyrazol-3-yl)-1H-pyrazolo[4,3-b]pyridine], the IC50 at FGFR1 (setting [1]) was greater than 100 nM; at FGFR3 (setting [2]), 10 to 100 nM. In addition, the “Selectivity (X) FGFR1/FGFR3” value on FGFR3 is “A (A represents 1 ≤ multiple X<20)”.

As to `CCCn1cc(-c2n[nH]c3ccc(O[C@H](C)c4c(Cl)cncc4Cl)nc23)cn1` [Example 46, (R)-5-(1-(3,5-dichloropyridin-4-yl)ethoxy)-3-(1-propyl-1H-pyrazol-4-yl)-1H-pyrazolo[4,3-b]pyridine], the IC50 is 10 to 100 nM at FGFR1 (setting [1]) and less than 1 nM at FGFR3 (setting [2]). Further, the “Selectivity (X) FGFR1/FGFR3” value on FGFR3 was “B (B represents 20 ≤ multiple X<50)”.

`C[C@@H](Oc1ccc2[nH]nc(-c3cnn(CC4CC4)c3)c2n1)c1c(Cl)cncc1Cl` [Example 49, (R)-3-(1-(cyclopropylmethy 1)-1H-pyrazol-4-yl)-5-(1-(3,5-dichloropyridin-4-yl)ethoxy)-1H-pyrazolo[4,3-b]pyridine]: the IC50 at FGFR1 (setting [1]) lay within 10 to 100 nM; at FGFR3 (setting [2]), 1 to 10 nM. Further, the “Selectivity (X) FGFR1/FGFR3” value at FGFR3 was “B (B represents 20 ≤ multiple X<50)”.

Consider `C[C@@H](Oc1ccc2[nH]nc(-c3cnn(CCC#N)c3)c2n1)c1c(Cl)cncc1Cl` [Example 50, (R)-3-(4-(5-(1-(3,5-dichloropyridin-4-yl)ethoxy)-1H-pyrazolo[4,3-b]pyridin-3-yl)-1H-pyrazol-1-yl)propionitrile], for which the IC50 at FGFR1 (setting [1]) was 10 to 100 nM; on FGFR3 (setting [2]), less than 1 nM. Moreover, at FGFR3, the “Selectivity (X) FGFR1/FGFR3” value is reported as “A (A represents 1 ≤ multiple X<20)”.

For the compound `Cc1ncc(-c2n[nH]c3ccc(O[C@H](C)c4c(Cl)cncc4Cl)nc23)cn1` [Example 52, (R)-5-(1-(3,5-dichloropyridin-4-yl)ethoxy)-3-(2-methylpyrimidin-5-yl)-1H-pyrazolo[4,3-b]pyridine], the IC50 was greater than 100 nM at FGFR1 (setting [1]) and 10 to 100 nM at FGFR3 (setting [2]). Further, the “Selectivity (X) FGFR1/FGFR3” value at FGFR3 is reported as “A (A represents 1 ≤ multiple X<20)”.

On to `C[C@@H](Oc1ccc2[nH]nc(-c3cnn(CCN4CCN(C)CC4)c3)c2n1)c1c(Cl)cncc1Cl` [Example 53, (R)-5-(1-(3,5-dichloropyridin-4-yl)ethoxy)-3-(1-(2-(4-methylpiperazin-1-yl)ethyl)-1H-pyrazol-4-yl)-1H-pyrazolo[4,3-b]pyridine], for which the IC50 on FGFR1 (setting [1]) is 1 to 10 nM; on FGFR3 (setting [2]), less than 1 nM. The “Selectivity (X) FGFR1/FGFR3” value at FGFR3 was “A (A represents 1 ≤ multiple X<20)”.
